The values that follow come from patent US12083134B2, “Anacardic acid for neural repair” (Vanderbilt University, priority 2018, dated 2024).

Common to all, as to format: in vivo, mice
In test [1] the test system is cuprizone induced demyelination. In words: Cuprizone induced model of demyelination, myelin staining of corpus callosum. As for the experimental part: Mice were administered cuprizone for nine weeks, and starting at week 7, mice were treated with 12.5 mg/kg AA daily for three additional weeks. Mice were sacrificed at the end of week 9. […] The data are expressed as the mean pixel intensity of LFB staining normalized to controls measured at two non-overlapping regions of the corpus callosum.
FIG. 11 provides images showing the staining of myelin using LFB stain (top panel) and immunostaining with anti MBP antibodies (bottom panel) in coronal sections of the brain in a 9-week study of naïve (left), cuprizone treated (middle), and cuprizone+AA treated (12.5 mg/kg/day) mice where the cuprizone+AA treated mice were treated with AA in weeks 7-9 of the study. The Y axis represents the mean pixel intensity of staining normalized to controls for LFB and immunostaining for MBP.
The cuprizone induced model of demyelination is a model for toxic demyelination. Torkildsen et al., Acta Neurol Scand Suppl. 188:72-6 (2008); Bai et al., Exp Neurol, 283(Pt A): 330-40 (2016). Cuprizone induces extensive demyelination in large white matter tracts of the CNS. Because the corpus callosum is the largest white matter tract in the brain, it is often used to study demyelination/remyelination in the cuprizone model. In the cuprizone model, animals are fed with cuprizone that causes cell death of oligodendrocytes. […] Deshmukh et al., Nature, 502(7471):327-32 (2014); Magalon et al., Ann Neurol, 71(2):213-26 (2012). Since the model is non-immune mediated, neuro-reparative therapies which promote remyelination can be tested without the interference of markers of inflammation. Lassmann and Bradl, Acta Neuropathol, 133(2):223-44 (2017).
The efficacy of any potential drug is only apparent for a short period of time after cuprizone withdrawal and before the natural process of remyelination catches up. Following cuprizone withdrawal, there is complete remyelination after 6 weeks. Thus, a study was conducted where mice were administered cuprizone in their chow for nine weeks and either AA or a vehicle were administered with the cuprizone starting at 7 weeks. Previous studies have shown that chow mixed with 0.2% cuprizone causes wide spread demyelination and demyelination is seen in the corpus callosum after 6 to 8 weeks on cuprizone. At the beginning of week 7, mice received 12.5 mg/kg of AA dissolved in DMSO sc daily for an additional three weeks. Control mice received an equal volume of DMSO (vehicle). Equal numbers of mice (5/group) were sacrificed and the amount of myelin was determined by staining with luxol fast blue (“LFB”) (chemical stain for myelin) or by staining with anti MBP antibodies at the end of weeks 7, 8 and 9. […]

Test [2] deals with experimental allergic encephalitis (EAE). Briefly: EAE treatment, AA from earliest onset of paralytic signs. From the text:
(§1) The data is expressed as a percent area of myelin loss in three non-contiguous axial sections of the spinal cord; p<0.01 between treated and untreated groups when AA is given beginning day 0 or from the onset of symptoms.
(§2) Experimental allergic encephalitis (“EAE”) is an autoimmune inflammatory demyelinating disease of the CNS. For experimental purposes, the disease is induced in animals by immunizing the animals with myelin antigens in adjuvant. […] Ten to twelve days after immunization, paralysis develops in the animals. The degree of paralysis is scored as follows: 1=limp tail, 2=ataxia of gait and paralysis of one or more limbs, 3=paralysis of two or more limbs, 4=weakness of all limbs, 5=death.
To determine if treatment with AA would promote recovery after paralytic attack, the experiment shown in FIG. 13 was repeated but treatment with AA was not initiated until the earliest sign of disease appeared which occurred between days 11 and 12 following the initial immunization with MOG antigen. In the experiment, 10 mice were administered 0.25 mg/kg AA a day in DMSO and 10 mice were administered DMSO (vehicle). In the 10 mice that received 0.25 mg/kg AA a day, there was no difference in the mean maximal severity of the disease when compared to vehicle treated mice. The mean maximal severity was 2.8 in the vehicle treated group and was 2.6 in the AA treated group. However, there was a rapid reversal of paralysis in the AA treated group.
When AA was administered at the earliest onset of clinical signs of paralysis, the percent demyelination score in the AA treated group was 2.9. In comparison, in the vehicle treated group the percent demyelination score was 7.2 (P<0.01) (FIG. 15).

For test [3] the test system is unchanged. Briefly: EAE prevention, AA from day of immunization with MOG peptide.
Excerpt: In two experiments, only 2 of 10 mice in the AA treated group developed grade 1 paralysis. In the vehicle treated group, 9 out of 10 mice developed paralysis. Clinical scoring: 1=limp tail, 2=ataxia of gait and paralysis of one or more limbs, 3=paralysis of two or more limbs, 4=weakness of all limbs, 5=death.
as §1, §2
The EAE model has been used extensively to examine the efficacy of potential drugs for MS therapy. The efficacy of AA in preventing EAE in mice immunized with MOG peptide in adjuvant was tested. A total of 10 mice were administered 0.25 mg/kg of AA dissolved in DMSO (vehicle) and a total of 10 mice were administered the vehicle alone by intraperitoneal injection daily for the entire length of the study (28 days). AA was obtained from commercial sources. Nine of 10 animals in the vehicle group developed paralytic signs, with a mean maximal paralytic score of 2.66. Two of 10 animals that received AA developed paralysis which was scored as a grade 1 paralysis (P<0.01 treated versus placebo). There was also significant decrease in the loss of myelin in the […]. (FIG. 13).
To confirm that the clinical scores calculated in the EAR experiments reflect pathology, the extent of demyelination in the cervical, thoracolumbar cord of each mouse in the vehicle treated and AA treated groups was examined. […]

As to `CCCCCCCCCCCCCCCc1cccc(O)c1C(=O)O` [AA, anacardic acid], the “number of oligodendrocytes vs vehicle treated mice” value in test [1] (AA 12.5 mg/kg/day) is listed as “no difference”. Also, the “increase in LFB staining of corpus callosum vs control mice” value in test [1] (end of week 9, three weeks of AA 12.5 mg/kg sc daily, P<0.02) amounted to 10%. Besides, in test [1] (end of weeks 7 and 8, one or two weeks of AA 12.5 mg/kg sc daily), the “expression of myelin vs control mice” value is given as “no differences”. Besides, in test [1] (week 9, AA 12.5 mg/kg/day weeks 7-9, P=0.02), the “increase in MBP staining (anti MBP antibodies) vs control mice” value turned out to be 17%. The “mean maximal severity (clinical score)” value in test [2] (AA 0.25 mg/kg a day from earliest sign of disease (days 11-12), vehicle 2.8) worked out at 2.6. In addition, in test [2] (AA 0.25 mg/kg/day from earliest onset of clinical signs, vehicle 7.2, P<0.01), the percent demyelination score was 2.9%. In addition, in test [2] (by day 24, AA 0.25 mg/kg a day from onset, one animal grade 2 weakness), the recovery from paralysis result is recorded as “all the other mice had fully recovered”. Moreover, the “demyelination in the spinal cord” value in test [3] (AA 0.25 mg/kg daily from day 0, vehicle 9.9+/−4.0 percent) is “no demyelination”. In test [3] (AA 0.25 mg/kg ip daily for 28 days from immunization, vehicle nine of 10, P<0.01), the “animals that developed paralysis” value is 2 of 10 and Two of 10. For the same molecule, the “grade of paralysis (clinical score 1-5)” value in test [3] (AA 0.25 mg/kg ip daily from immunization, affected animals) stood at 1.
